Results taken from patent publication US8569350B2, “Anti-mitotic anti-proliferative compounds” (Rutgers, The State University of New Jersey, priority 2004, dated 2013).

Assays:
[1] = system: EKVX cells associated with non-small cell lung cancer; assay: NCI DTP cancer cell growth inhibition, EKVX; format: cell-based; conditions: a large negative number denotes stronger activity
Method: (§1) A detailed evaluation of cancer cell growth inhibition effect for T111-T115 was conducted by the NIH-National […] (NCI) Developmental Therapeutic Program (DTP) (FIG. 4). A large negative number denotes stronger activity.

[2] = system: NCI-H322M cells associated with non-small cell lung cancer; assay: NCI DTP cancer cell growth inhibition, NCI-H322M; format: cell-based; conditions: a large negative number denotes stronger activity
Method: as §1

[3] = system: NCI-H522 cells associated with non-small cell lung cancer; assay: NCI DTP cancer cell growth inhibition, NCI-H522; format: cell-based; conditions: a large negative number denotes stronger activity
Method: as §1

60-cell line panel = assay: NCI DTP cancer cell growth inhibition, 60-cell line panel overall; format: cell-based; conditions: across the 60-cell line panel
Method: as §1

melting point	Compound	growth inhibition (log 10GI50) [1]	growth inhibition (log 10GI50) [2]	growth inhibition (log 10GI50) [3]	overall growth inhibition performance (60-cell line panel)
151 to 152 °C	COc1ccc(-n2cnnc2-c2cc(OC)c(OC)c(OC)c2)cc1F				
163 to 165 °C	COc1ccc(-n2cnnc2-c2cc(OC)c(OC)c(OC)c2)cc1 [Compound T111, 3-(3,4,5-trimethoxyl)phenyl-4-(4-methoxyl)phenyl-1,2,4(H)triazole]				
145 to 147 °C	COc1cc(-c2nncn2-c2ccc(N(C)C)cc2)cc(OC)c1OC [Compound T112, 3-(3,4,5-trimethoxyl)phenyl-4-(N,N-dimethylamino) phenyl-1,2,4(H)triazole]				
197 to 198 °C	COc1ccc(-n2cnnc2-c2cc(OC)c(OC)c(OC)c2)cc1O [Compound T113, 3-(3,4,5-trimethoxyl)phenyl-4-(3-hydroxyl, 4-methoxyl)phenyl-1,2,4(H)triazole]				
157 to 159 °C	COc1cc(-c2nncn2-c2ccc3c(ccn3C)c2)cc(OC)c1OC [Compound T115]	< −8.00	< −8.00	< −8.00	performed uniformly well
